Values quoted from earlier work in patent US20020025537A1, “High-throughput methods for generating and screening compounds that affect cell viability” (priority 2000, published 2002).
Bridge positions count the residues as written; N and C are the ends. Ends that are not written are not given here.

Experiments:
[1] = system: Gram negative and Gram positive pathogenic bacteria, including strains of methicillin resistant S. aureus and vancomycin resistant E. faecalis; details: in vitro; Gram negative and Gram positive pathogens incl. MRSA and vancomycin resistant E. faecalis
[2] = system: methicillin resistant S. aureus and vancomycin resistant E. faecalis; details: intravenous administration

Substance: protegrin-1 (RGGRLCYCRRRFCVCVGR-NH2; disulfide 8-13, 6-15; ends not checked; UniProt P32194 131-148, looked up) [PG-1, a native peptide obtained from porcine leukocytes]
- bactericidal activity [1]: rapid bactericidal activity
- toxicity to the mice [2]: without apparent toxicity
- protection from lethal challenges ([2]; mice, challenge with MRSA or vancomycin resistant E. faecalis): protected mice from lethal challenges
